Measurements reported in patent US20070213291A1, “Therapeutically useful synthetic oligonucleotides” (priority 1999, published 2007).

Columns and labels:
Format in all cases: cell-based
[1] = test system: Jurkat human leukemia T cells; experiment: Inhibition of Jurkat human leukemia T cell proliferation (MTT reduction); settings: 100 μg/ml sequence, 48 h, 2.5×10^5 cells/ml
Procedure: (§1) Cells were seeded in 6 (1 ml/well), 24 (0.5 ml/well) or 96 (0.1 ml/well) well flat-bottom microplates and were maintained at 37° C. in a 5% CO2 atmosphere. Unless stated otherwise, 2.5×10^5 cells/ml were incubated with 0 μg/ml (control) and 100 μg/ml (treated) of 2 to 45 base sequences containing A, C, G and T for 48 h.
MTT was measured at a wavelength of 570 nm using a multiplate spectrophotometer reader (ELX800, Bio-TEK Instruments Inc., Winooski, Vt.).
Jurkat human leukemia T cells are an atypical multi-drug resistant human suspension tumor cell model.

[2] = test system: MCF-7 human breast cancer cells; experiment: Inhibition of MCF-7 cell proliferation (MTT); settings: 100 μg/ml, 48 h, 5×10^5 cells/ml
Procedure: as §1
Cell proliferation was measured using dimethylthiazol-diphenyl-tetrazolium (MTT) reduction (Mosman et al. J. Immunol. Methods 65:55, 1983). MTT was measured at a wavelength of 570 nm using a multiplate spectrophotometer reader (ELX800, Bio-TEK Instruments Inc., Winooski, Vt.).
MCF-7 human breast cancer cells are a caspase 3 negative, estrogen-dependent human solid tumor model. MCF-7 cells (5×10^5 cells/ml) were incubated with 3 and 6 base GT sequences (Table 7).

[3] = test system: THP-1 human acute monocytic leukemia cells; experiment: Cytokine production by THP-1 cells (ELISA); settings: THP-1, 1×10^6 cells, 100 μg/ml, 48 h; p70 complex and free p40
Procedure: Unless stated otherwise, 1×10^6 cells were incubated with 100 μg/ml of each of the sequences tested for 48 h at 37° C. in 5% CO2. Production of cytokines IL-6, IL-10, IL-12, IL-1beta and TNF-alpha was determined in pg/ml in 100 μl of culture supernatant using the appropriate commercial ELISA (BioSource, Camarillo Calif.). The IL-12 ELISA measures both IL-12 p70 complex and free p40 subunit. Results are expressed as the “fold” (×) increase in cytokine production by treated cells compared to control cells.
THP-1 human acute monocytic leukemia cells were incubated with 2, 3, 6, 9, 12, 14, 15 and 18 base GT sequences and production of the cyotkine IL-6 was determined (Table 35).
THP-1 human acute monocytic leukemia cells were incubated with 6 base GT, AG, CG, GG, AGT and CGT sequences and production of the cytokines IL-12 and IL-6 was determined (Table 36).
THP-1 human acute monocytic leukemia cells were incubated with 6 base GT sequences, having either an oxygen (phosphodiester) or a sulfur (phosphorothioate) as the nonbridging atom on the phosphate groups and production of the cytokine IL-12 was determined (Table 39).
THP-1 human acute monocytic leukemia cells were incubated with 6 base GT SEQ ID NO:25, having either an oxygen (phosphodiester) or a sulfur (phosphorothioate) as the nonbridging atom on the phosphate groups and production of the cytokine IL-12 was determined (Table 40).

[4] = test system: Jurkat human leukemia T cells; experiment: Apoptosis by phosphatidylserine/annexin V-FITC flow cytometry; settings: 50 μM sequence
Procedure: (§2) The redistribution of phosphatidylserine in the plasma membrane during apoptosis was measured by flow cytometry using FITC-conjugated annexin V (BD Pharmingen, San Diego, Calif.). NuMA release into the supernatant was determined using a commercial ELISA kit (Oncogen/Calbiochem, Cambridge, Mass.).
Jurkat human leukemia T cells were incubated with 50 μM of 3, 4, 5, 6 and 7 GT base sequences, a 5 base ACGT sequence, 6 base AG, GG, AGT and CGT sequences and a 7 base GG sequence. […]
Jurkat human leukemia T cells were incubated with GT-rich or AC-rich sequences derived from the murA gene of Mycobacterium phlei (GenBank: Accession Number X99776). Inhibition of proliferation was measured by the reduction of MTT as in Example 3, cell cycle arrest was detected by flow cytometry using propidium iodide as in Example 21 and apoptosis was evaluated by flow cytometry using annexin-V-FITC as in Example 23.

[5] = test system: Jurkat human leukemia T cells; experiment: NuMA release into supernatant (ELISA); settings: for % NuMA released (treated vs untreated cells): Jurkat, 50 μM sequence; for % NUMA RELEASED: Jurkat 1×10^6/ml
Procedure: as §2
Jurkat human leukemia T cells were incubated with 50 μM of 3, 4, 5, 6 and 7 GT base sequences, a 5 base ACGT sequence, 6 base AG, GG, AGT and CGT sequences and a 7 base GG sequence.
Jurkat human leukemia T cells (1×10^6/ml) were incubated with 6 and 27 GT base sequences (Table 32). NuMA was determined as in Example 23.
(§3) Jurkat human cell leukemia T cells were incubated for 24 h with 6 base GT SEQ ID NO:25, complementary 6 base AC SEQ ID NO:79, and 6 base GT SEQ ID NO:25+6 base AC SEQ ID NO:79. GT SEQ ID NO:25 and AC SEQ ID NO:79 were hybridized by mixing the sequences (1:1) and heating for 10 minutes at 65° C. As controls, GT SEQ ID NO:25 and AC SEQ ID NO:79 were heated for 10 minutes at 65° C. (Table 33). Apoptosis was evaluated as in Example 23.

[6] = test system: Jurkat human leukemia T cells; experiment: Cell cycle stage in Jurkat cells (propidium iodide flow cytometry); settings: Jurkat, 24 h, 100 μg/ml
Procedure: Cell cycle stage was determined using a […]™ PLUS DNA commercial kit (Becton Dickinson). Briefly, nuclei from cells were obtained by dissolving the cell membrane in a nonionic detergent, eliminating the cell cytoskeleton and nuclear proteins with trypsin, digesting the cellular RNA with RNase and stabilizing the nuclear chromatin with spermine. Propidium iodide was added to the cell nuclei and their fluorescence was analyzed in a flow cytometer equipped with electronic doublet discrimination capability (FACSCalibur, Becton Dickinson, San Jose, Calif.). Accumulation of cells in G0/G1, early S (SE), mid S (SM), late S (SL) or G2/M phases of the cell cycle was analyzed using MODFIT LT software (Verity Software House Inc., Topsham, Mass.).
Exponentially growing Jurkat human leukemia T cells (Table 28) and MCF-7 human breast cancer cells (5×10^5 cells/ml) (Table 29) were incubated for 24 h with 2, 6, 15, 18, 27 and 45 base sequences containing A, C, G and T. The cells were collected and centrifuged and cell cycle stage was determined.
as §3, with “cells (1×10^6 cells/ml)” for “cells”, “conplementary” for “complementary”, “NO:79” for “NO:79,”, “oligonucleotides” for “sequences”, “30).” for “33). Apoptosis was evaluated as in Example 23.”

Row | Substance | % INHIBITION of Jurkat human leukemia T cell proliferation [1] | % INHIBITION of MCF-7 human breast cancer cell proliferation [2] | ↑ IL-12 (fold increase treated vs control cells) [3] | % of cells in apoptosis (positive for PS/A-V staining) [4] | % NuMA released (treated vs untreated cells) [5] | also measured
1 | GsGoGoToGoGs | 16% | 12% | −0.1x | – | – | –
2 | GGTG (unmodified DNA) [SEQ ID NO:56] | 54% | – | – | 24% | 112% | –
3 | GGGTGGGTGGGTGGGTGGGTGGGTGGG [SEQ ID NO:2] | 23% | – | – | – | – | % of cells in phase: G0/G1 [6]: 34.3%; % of cells in phase: G2/M [6]: 26.4%; % of cells in phase: SE [6]: 15.5%; % of cells in phase: SL [6]: 10.3%; % of cells in phase: SM [6]: 13.6%; Arrest (cell cycle) [6]: None; % NUMA RELEASED [5]: 49%
4 | GGGTG (unmodified DNA) [SEQ ID NO:61] | 50% | – | – | 25% | 92% | –
5 | GGGGGGGTGGGGGGGTGGGGGGGTGGG (unmodified DNA) [SEQ ID NO:4] | 11% | – | – | – | – | % of cells in phase: G0/G1 [6]: 36.5%; % of cells in phase: G2/M [6]: 22.3%; % of cells in phase: SE [6]: 16.3%; % of cells in phase: SL [6]: 11.1%; % of cells in phase: SM [6]: 13.8%; Arrest (cell cycle) [6]: None; % NUMA RELEASED [5]: 90%
6 | GoGsGoToGsGo | 11% | 13% | −0.1x | – | – | –
7 | CG(GT)1A (DNA CGGTA; unmodified DNA) [SEQ ID NO:80] | – | – | – | 6% | 9% | –
8 | GGGGTGG (unmodified DNA) [SEQ ID NO:62] | 41% | – | – | 30% | 123% | –
9 | GoGoGoTsGoGo | 12% | 0% | 0.2x | – | – | –
